Columns and labels:
[1] = Mechanical stability: XRPD before and after jet milling; format: physicochemical; conditions: jet milled to D90≤10 μm
Description: In addition, 224.90 g of the above compound of the formula (1) was jet milled (feed pressure 0.4 to 0.5 MPa, milling pressure 0.18 to 0.22 MPa) to give 212.00 g sample with a particle size of D90≤10 μm.

[2] = Hygroscopicity by dynamic vapour sorption (DVS); format: physicochemical
Procedure: • Instrument model: Bruker D8 Venture single-crystal diffractometer • Light source: Mo target • X-ray: Mo—K (=0.71073 Å) • Detector: CMOS based detector • Resolution: 0.84 Å • Current and voltage: 50 kV, […] 2. X-Ray Powder Diffraction (XRPD) • Instrument model: PANalytical X'Pert3 Power • X-ray: Cu, Kα, Kα1 (Å): 1.540598; Kα2 (Å): 1.544426 • X-ray tube setting: 45 kV, 40 mA • Divergence slit: 1/8° • Scan pattern: continuous • Scanning range (2θ): 3°-40° • Scan step size (2θ): 0.0263° 3. Differential Scanning Calorimetry (DSC) • Instrument model: TA Q2000/2500 differential scanning calorimeter • Heating rate: 10° C./min • Temperature range: 25° C. to setting end-point temperature • Shielding gas: nitrogen 4. Thermogravimetric Analysis (TGA) • Instrument model: TA Q5000/5500 thermogravimetric analyzer • Heating rate: 10° C./min • Temperature range: room temperature to setting end-point temperature • Shielding gas: nitrogen 5. Dynamic Vapour Sorption (DVS) • Instrument model: SMS DVS Intrinsic vapour sorption analyzer • Temperature: 25° C. • RH range: 0% RH-95% RH • Shielding gas: nitrogen

[3] = Solid state stability of the crystal form (XRPD, HPLC); format: physicochemical
Procedure: The crystal form F samples of the compound of formula (1) were placed at 60° C. for 30 days, at 25° C./92.5% RH for 30 days, and exposed to light for 15 days, respectively. The physical and chemical stability of the samples were tested by XRPD and HPLC.

[4] = test system: influenza A virus (H1N1, A/WSN/33); experiment: Efficacy on mice, IAV mouse infection model; format: in vivo, BALB/c mice; conditions: 15 mpk orally twice a day; for Body weight change: infected mice, during the experiment; for Mean difference of virus titer compared with the menstruum group: mice, 5th day after virus infection
Description: Female BALB/c mice were inoculated with influenza A virus (H1N1, A/WSN/33) by intranasal administration to establish an IAV mouse infection model. Menstruum, the compound of formula (1) (15 mpk) or oseltamivir phosphate (15 mpk) were orally administered twice a day. Animal weight and survival status were monitored daily during the test, and on the 5th day, some animals were sacrificed to take lung tissue for virus titer detection, and the remaining mice were used for survival rate monitoring. The in vivo anti-influenza virus efficacy of the test compound was determined by virus titer in lung tissue, mouse body weight change and survival rate.

[5] = Light (white light 4500 Lux, ultraviolet light 90 μw/cm^2)/15 days

SMILES	Crystal form before and after milling (XRPD) [1]	Crystal form before and after the DVS test (XRPD) ([2]; DVS at 25° C.)	Moisture-absorption weight gain ([2]; DVS, 25° C./80% RH) [%]	Appearance and character ([3]; 25° C./92.5% RH/30 days)	Crystal form change ([3]; 25° C./92.5% RH/30 days)	Purity (area %) ([3]; 25° C./92.5% RH/30 days)	Purity/initial (%) ([3]; 25° C./92.5% RH/30 days)	Appearance and character ([3]; 60° C./30 days)	Crystal form change ([3]; 60° C./30 days)	Purity (area %) ([3]; 60° C./30 days)	Purity/initial (%) ([3]; 60° C./30 days)	Appearance and character ([3]; Initial)	Crystal form change ([3]; Initial)	Purity (area %) ([3]; Initial)	Appearance and character [3, 5]	Crystal form change [3, 5]	Purity (area %) [3, 5] [area %]	Purity/initial (%) [3, 5] [%]	Body weight change [4]	Mean difference of virus titer compared with the menstruum group [4]
COC(=O)OCOc1c2n(ccc1=O)N([C@@H]1c3ccccc3SCc3c1ccc(F)c3F)[C@@H]1COC3(CC3)CN1C2=O [crystal form F]	does not change	did not change	0.10	White	No	99.0	100.4	White	No	98.7	100.1	White	No	98.6	White	No	98.5	99.9	–	–
COC(=O)OCOc1c2n(ccc1=O)N([C@@H]1c3ccccc3SCc3c1ccc(F)c3F)[C@@H]1COC3(CC3)CN1C2=O [Compound of formula (1), (((R)-12′-((S)-7,8-difluoro-6,11-dihydrodibenzo[b,e]thiepin-11-yl)-6′,8′-dioxo-6′,8′,12′,12a′-tetrahydro-1′H,4′H-spiro[cyclopropane-1,3′-[1,4]oxazino[3,4-c]pyrido[2,1-f][1,2,4]triazin]-7′-yl)oxy)methyl methyl carbonate]	–	–	–	–	–	–	–	–	–	–	–	–	–	–	–	–	–	–	remained stable during the experiment, had no significant decline	3.92 Log10 (plaques number/gram of
CCOC(=O)C1=C[C@@H](OC(CC)CC)[C@H](NC(C)=O)[C@@H](N)C1 [Oseltamivir phosphate, oseltamivir phosphate, reference compound]	–	–	–	–	–	–	–	–	–	–	–	–	–	–	–	–	–	–	remained stable during the experiment, had no significant decline	3.46 Log10 (plaques number/gram of
